The test system of assay [1] is Human immunodeficiency virus. The assay is described as follows: Antiviral activity against HIV. Type of assay: functional, organism-based. Conditions: Human immunodeficiency virus 1.
In the next assay the test system is CEM-SS. In words: Cytotoxicity against human CEM-SS cells. Type of assay: functional, cell-based.

≈ marks a conversion by molar mass, not a printed value.

One may read the EC50 as the concentration giving half of the maximal effect. For orientation: IC50 means the point on the concentration scale where inhibition reaches its midpoint. Read a low IC50 as higher potency. In assay [1], `COc1c(CC=C(C)C)c(O)c(C(=O)c2ccc(O)cc2)c(O)c1CC=C(C)C` [VISMIAPHENONE D] showed an EC50 of 11 µg/mL (≈ 27.7 µM). The IC50 in the assay with CEM-SS is 30 µg/mL (≈ 75.7 µM).

Values taken from ChEMBL document CHEMBL1157986, “Vismiaphenones D-G, new prenylated benzophenones from Vismia cayennensis” (J Nat Prod, 1999).
